Experimental data taken from ChEMBL document CHEMBL1641548, “Fused bicyclic derivatives of 2,4-diaminopyrimidine as c-Met inhibitors” (Bioorg Med Chem Lett, 2011).

How the values were obtained:
Type in all cases: ADME, organism-based
[1] = Half life in rat at 1 mg/kg, iv; set-up: dose 1 mg/kg, route intravenous; details: in vivo
[2] = AUC (0 to infinity) in rat at 1 mg/kg, iv; set-up: time infinity, dose 1 mg/kg, route intravenous; details: plasma
[3] = AUC (0 to infinity) in rat at 5 mg/kg, po; set-up: time infinity, dose 5 mg/kg, route oral; details: plasma
[4] = Oral bioavailability in rat at 5 mg/kg, po; details: in vivo
[5] = Clearance in rat at 1 mg/kg, iv; set-up: dose 1 mg/kg, route intravenous; details: in vivo

half-life [1]: 42 min
AUC(0-inf) [2]: 1260 ng·h/mL
AUC(0-inf) [3]: 592 ng·h/mL
bioavailability [4]: 8%
clearance [5]: 15 mL/min/kg
Compound: CNC(=O)c1cccc(F)c1Nc1nc(Nc2ccc3c(c2)NC(=O)CCC3)ncc1Cl
